From patent publication US4818770A, “Prevention of a plant disease by specific inhibition of fungal polyamine biosynthesis” (priority 1986, dated 1989)
Several values for one entry are separate records, joined by “and”; a condition that tells them apart may be missing. Equal entries are not always repeated.

Assays:
[1] = Tabor et al. (1985); cited from earlier work
[2] = tested on: Collectotrichum lagenarium; experiment: Radial growth in vitro of cucumber anthracnose fungus; assay type: cell-based, Colletotrichum lagenarium
Protocol: See Table 15 for the effect of DFMO on radial growth in vitro on cucumber anthracnose fungus (Colletcotrichum lagenarium). The cucumber anthracnose fungus growing in Czapek's agar in Petri plates is not affected by DFMO up to 5 mM.

U. phaseoli [3] = experiment: Bean rust severity after DFMO and polyamines alone or combined; assay type: in vivo, Uromyces phaseoli
[4] = tested on: Colletotrichum lagenarium; experiment: Infection of National Pickling cucumber plants by cucumber anthracnose
U. phaseoli uredospores = experiment: Uredospore germination on the surface of the unifoliolate bean leaf; assay type: in vivo, Uromyces phaseoli; conditions: sprayed 1 day before inoculation
Uromyces phaseoli [5] = experiment: Bean rust lesions on reinoculated trifoliolate leaves; conditions: for Lesions per cm^2 / Lesions per leaflet: reinoculated trifoliolate leaves
Description: Trifoliolate leaves were reinoculated with pathogen after 1 week, before
or after exposure to DFMO, to detect transfer of a protective effect to
other parts of the plant.

Puccinia sorghi = experiment: Infection by corn rust; assay type: in vivo
tomato plants = experiment: Effect on growth of uninoculated tomato plants; assay type: in vivo, Lycoperisicon esculentum; conditions: concentrations up to 20 mM; 28-day observation period
Uromyces phaseoli [6] = experiment: Translocation of protective effect in partially treated unifoliolate bean leaves; assay type: in vivo; conditions: for Lesions per cm^2, treated side / Lesions per cm^2, untreated side / Lesions per half leaf, treated side / Lesions per half leaf, untreated side: 1.0 mM on one longitudinal half leaf
U. phaseoli [7] = experiment: Kinetics of bean rust inhibition by delayed postinoculation DFMO; assay type: in vivo, Uromyces phaseoli
Podosphaera leucotricha = experiment: Infection of apple by powdery mildew; assay type: in vivo
arginase = molecular target: T1, arginase (Verticillium dahliae, UniProt G2WV09); experiment: Arginase activity in mycelium extracts with DFMA as substrate; assay type: biochemical; conditions: mycelium of 12-day old cultures
T1 construct: urea release from arginine or DFMA
T1 sequence (G2WV09 1-327): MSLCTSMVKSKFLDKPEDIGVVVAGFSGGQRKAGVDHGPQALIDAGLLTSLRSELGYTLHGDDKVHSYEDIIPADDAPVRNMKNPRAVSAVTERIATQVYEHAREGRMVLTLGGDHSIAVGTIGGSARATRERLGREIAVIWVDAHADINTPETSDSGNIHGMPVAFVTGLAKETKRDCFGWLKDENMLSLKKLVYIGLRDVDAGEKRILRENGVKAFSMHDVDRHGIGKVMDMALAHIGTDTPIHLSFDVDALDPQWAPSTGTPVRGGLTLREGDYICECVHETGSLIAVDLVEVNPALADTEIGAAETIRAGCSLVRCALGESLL
Protocol: Ornithine decarboxylase and ADCase activity determinations were carried out on 12-day-old mycelium of the fungus cultured on liquid Czapek-Dox medium containing 1% glucose as the carbon source.
Ornithine decarboxylase and ADCase were assayed by the methods of Kaur-Sawhney et al. (4) using D,L-[1-14 C]ornithine and L-[U14 C]arginine as substrates for the respective enzymes. Arginase activity was determined by the methods of Schimke (9), using arginine and DFMA as substrates, and 1-phenyl-1,2-propanedione-2-oxime to detect the urea release by the enzyme. Controls for the arginase determinations were boiled mycelial extracts, and results were adjusted to compensate for readings obtained from substrate blanks. Protein determinations were by the […] method (1), using bovine serum albumin as a reference standard. Difluoromethylornithine and DFMA are products of Merrell-Dow, and are available from them. All other reagents were from Sigma Biochemicals. All experiments were replicated 3 times and repeated twice. Variaions within experiments were generally less than 5%.

[8] = DFMO 0.05 mM alone, postinoculation
[9] = postinoculation exposure, DFMO 0.05 mM
[10] = postinoculation exposure, DFMO 0.1 mM
[11] = postinoculation exposure, DFMO 0.5 mM
[12] = postinoculation exposure, DFMO 1.0 mM
[13] = postinoculation exposure, DFMO 5.0 mM
[14] = preinoculation exposure, DFMO 0.05 mM
[15] = preinoculation exposure, DFMO 0.1 mM
[16] = preinoculation exposure, DFMO 0.5 mM
[17] = preinoculation exposure, DFMO 1.0 mM
[18] = preinoculation exposure, DFMO 5.0 mM
[19] = 1.0 mM DFMO sprayed 1 d after spore inoculation
[20] = 1.0 mM DFMO sprayed 2 d after spore inoculation
[21] = 1.0 mM DFMO sprayed 3 d after spore inoculation
[22] = 1.0 mM DFMO sprayed 4 d after spore inoculation
[23] = 1.0 mM DFMO sprayed 5 d after spore inoculation

NCCCC(N)(C(=O)O)C(F)F (racemic) [DFMO, DL-alpha-difluorimethylornithine]
toxicity [1]: low toxicity | Radial growth (cm) ([2]; 0.10 mM): 4.5 cm | Radial growth (cm) ([2]; 0.25 mM): 4.5 cm | Radial growth (cm) ([2]; 0.50 mM): 4.5 cm | Radial growth (cm) ([2]; 0.65 mM): 4.4 cm | Radial growth (cm) ([2]; 1.00 mM): 4.0 cm | Radial growth (cm) ([2]; 5.00 mM): 3.8 cm | inhibition of growth at 650 µM ([2]; Colletotrichum orbiculare, 0.65 mM, read-out: Percent control): 2% | inhibition of growth at 1000 µM ([2]; Colletotrichum orbiculare, 1.00 mM, read-out: Percent control): 7% | inhibition of growth at 5000 µM ([2]; Colletotrichum orbiculare, 5.00 mM, read-out: Percent control): 16% | effect on fungus growing in Czapek's agar ([2]; up to 5 mM): not affected | reduction of number of lesions (U. phaseoli [3]; 0.05 mM DFMO alone): 70% | Lesions per cm^2 (U. phaseoli [3]; [8]): 22 ± 4 per cm^2 | Lesions per leaf (U. phaseoli [3]; [8]): 1223 ± 268 per leaf | Lesions per leaf, percent of control (U. phaseoli [3]; [8]): 30% of control | inhibition at 50 µM (U. phaseoli [3]; Uromyces phaseoli, 0.05 mM DFMO, read-out: inhibition of uredial development): ~50% | Lesions per plant ([4]; 1.0 mM): 69 per plant | Percent control ([4]; 1.0 mM): 14% | Lesions per plant ([4]; 5.0 mM): 69 per plant | Percent control ([4]; 5.0 mM): 14% | Lesions per plant ([4]; 10.0 mM): 70 per plant | Percent control ([4]; 10.0 mM): 14% | spore germination on leaf surface (U. phaseoli uredospores; lower concentrations of DFMO): partially inhibited | spore germination on leaf surface (U. phaseoli uredospores; more than 0.5 mM DFMO): completely inhibited | protection of newly emerged trifoliolate leaves (Uromyces phaseoli [5]; 5.0 mM DFMO, reinoculated after 1 week): complete protection | Lesions per cm^2 (Uromyces phaseoli [5]; [9]): 59 ± 1 per cm^2 | Lesions per leaflet (Uromyces phaseoli [5]; [9]): 1246 ± 73 per leaflet | Lesions per cm^2 (Uromyces phaseoli [5]; [10]): 58 ± 4 per cm^2 | Lesions per leaflet (Uromyces phaseoli [5]; [10]): 1289 ± 131 per leaflet | Lesions per cm^2 (Uromyces phaseoli [5]; [11]): 41 ± 4 per cm^2 | Lesions per leaflet (Uromyces phaseoli [5]; [11]): 982 ± 84 per leaflet | Lesions per cm^2 (Uromyces phaseoli [5]; [12]): 22 ± 2 per cm^2 | Lesions per leaflet (Uromyces phaseoli [5]; [12]): 422 ± 13 per leaflet | Lesions per cm^2 (Uromyces phaseoli [5]; [13]): 0 per cm^2 | Lesions per leaflet (Uromyces phaseoli [5]; [13]): 0 per leaflet | Lesions per cm^2 (Uromyces phaseoli [5]; [14]): 64 ± 5 per cm^2 | Lesions per leaflet (Uromyces phaseoli [5]; [14]): 1458 ± 92 per leaflet | Lesions per cm^2 (Uromyces phaseoli [5]; [15]): 55 ± 3 per cm^2 | Lesions per leaflet (Uromyces phaseoli [5]; [15]): 1274 ± 120 per leaflet | Lesions per cm^2 (Uromyces phaseoli [5]; [16]): 39 ± 7 per cm^2 | Lesions per leaflet (Uromyces phaseoli [5]; [16]): 1172 ± 158 per leaflet | Lesions per cm^2 (Uromyces phaseoli [5]; [17]): 16 ± 2 per cm^2 | Lesions per leaflet (Uromyces phaseoli [5]; [17]): 320 ± 22 per leaflet | Lesions per cm^2 (Uromyces phaseoli [5]; [18]): 0 per cm^2 | Lesions per leaflet (Uromyces phaseoli [5]; [18]): 0 per leaflet | Percent control (Puccinia sorghi; 0.01 mM): 43.5% | Percent control (Puccinia sorghi; 0.025 mM): 38.4% | Percent control (Puccinia sorghi; 0.065 mM): 37.4% | Percent control (Puccinia sorghi; 0.10 mM): 63.1% | Percent control (Puccinia sorghi; 0.13 mM): 67.7% | Percent control (Puccinia sorghi; 0.16 mM): 88.7% and ~90% | Percent control (Puccinia sorghi; 0.20 mM): 88.4% | Percent control (Puccinia sorghi; 1.00 mM): 94.9% | EC50 (Puccinia sorghi; Puccinia sorghi, read-out: concentration providing 50% protection against corn rust): < 100 µM | growth and development of uninoculated tomato plants (tomato plants): no apparent effects on the growth and development of the plants | protection of the untreated half of the leaf (Uromyces phaseoli [6]; petiolar or apical half treated with 1 mM DFMO): the other half was also protected against infection | Lesions per cm^2, treated side (Uromyces phaseoli [6]; postinoculation exposure): 0 per cm^2 | Lesions per cm^2, untreated side (Uromyces phaseoli [6]; postinoculation exposure): 0 per cm^2 | Lesions per half leaf, treated side (Uromyces phaseoli [6]; postinoculation exposure): 0 per half leaf | Lesions per half leaf, untreated side (Uromyces phaseoli [6]; postinoculation exposure): 0 per half leaf | Lesions per cm^2, treated side (Uromyces phaseoli [6]; preinoculation exposure): 0 per cm^2 | Lesions per cm^2, untreated side (Uromyces phaseoli [6]; preinoculation exposure): 22 ± 4 per cm^2 | Lesions per half leaf, treated side (Uromyces phaseoli [6]; preinoculation exposure): 0 per half leaf | Lesions per half leaf, untreated side (Uromyces phaseoli [6]; preinoculation exposure): 617 ± 112 per half leaf | Lesions per cm^2 (U. phaseoli [7]; [19]): 0 per cm^2 | Lesions per leaf (U. phaseoli [7]; [19]): 0 per leaf | Lesions per cm^2 (U. phaseoli [7]; [20]): 0 per cm^2 | Lesions per leaf (U. phaseoli [7]; [20]): 0 per leaf | Lesions per cm^2 (U. phaseoli [7]; [21]): 0 per cm^2 | Lesions per leaf (U. phaseoli [7]; [21]): 0 per leaf | Lesions per cm^2 (U. phaseoli [7]; [22]): 41 ± 5 per cm^2 | Lesions per leaf (U. phaseoli [7]; [22]): 2330 ± 211 per leaf | Lesions per cm^2 (U. phaseoli [7]; [23]): 53 ± 4 per cm^2 | Lesions per leaf (U. phaseoli [7]; [23]): 3278 ± 326 per leaf | Percent control (Podosphaera leucotricha; 5 mM): 48.6%

N=C(N)NCCC[C@](N)(C(=O)O)C(F)F [DFMA, alpha-difluoromethylarginine]
arginase activity with DFMA as substrate (arginase; isolate TS-1B): 7.1 pM urea/hr/mg protein | arginase activity with DFMA as substrate (arginase; isolate TS-2B): 11.3 pM urea/hr/mg protein | Lesions per plant ([4]; 1.0 mM): 73 per plant | Percent control ([4]; 1.0 mM): 10% | Lesions per plant ([4]; 5.0 mM): 71 per plant | Percent control ([4]; 5.0 mM): 12% | Lesions per plant ([4]; 10.0 mM): 73 per plant | Percent control ([4]; 10.0 mM): 10% | Percent control (Puccinia sorghi; 0.01 mM): 13.0% | Percent control (Puccinia sorghi; 0.025 mM): 7.2% | Percent control (Puccinia sorghi; 0.065 mM): 0.0% | Percent control (Puccinia sorghi; 0.10 mM): 0.0% | Percent control (Puccinia sorghi; 0.13 mM): 9.3% | Percent control (Puccinia sorghi; 0.16 mM): 27.1% | Percent control (Puccinia sorghi; 0.20 mM): 14.0% | control of corn rust (Puccinia sorghi; up to 0.20 mM): essentially ineffective | Percent control (Podosphaera leucotricha; 1 mM): 0.8% | Percent control (Podosphaera leucotricha; 5 mM): 28.8% | Percent control (Podosphaera leucotricha; 10 mM): 0.0% | control of apple powdery mildew (Podosphaera leucotricha; 1-10 mM applications): essentially ineffective
